Assay results: PubChem BioAssay (NCI)
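48-hour exposure; five concentrations; linearly interpolated endpoints. GI50 is the concentration that inhibits growth by half. Definition used: TGI = concentration required for complete inhibition of growth.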

Columns and labels:
Test in all cases: inhibition of tumour cell growth, NCI panel, 48 h
HCT-116 colon = test system: HCT-116 colon
HOP-92 NSCLC = test system: HOP-92 NSCLC
HT29 colon = test system: HT29 colon
M14 melanoma = test system: M14 melanoma
MCF7 breast = test system: MCF7 breast
OVCAR-3 ovarian = test system: OVCAR-3 ovarian
PC-3 prostate = test system: PC-3 prostate
SF-539 CNS = test system: SF-539 CNS
SK-MEL-2 melanoma = test system: SK-MEL-2 melanoma
UO-31 renal = test system: UO-31 renal

Row | SMILES | TGI (HCT-116 colon) [µM] | TGI (HOP-92 NSCLC) [µM] | TGI (HT29 colon) [µM] | TGI (M14 melanoma) [µM] | TGI (MCF7 breast) [µM] | TGI (OVCAR-3 ovarian) [µM] | TGI (PC-3 prostate) [µM] | TGI (SF-539 CNS) [µM] | TGI (SK-MEL-2 melanoma) [µM] | TGI (UO-31 renal) [µM] | GI50 (HCT-116 colon) [µM] | GI50 (HOP-92 NSCLC) [µM] | GI50 (HT29 colon) [µM] | GI50 (M14 melanoma) [µM] | GI50 (MCF7 breast) [µM] | GI50 (OVCAR-3 ovarian) [µM] | GI50 (PC-3 prostate) [µM] | GI50 (SF-539 CNS) [µM] | GI50 (SK-MEL-2 melanoma) [µM] | GI50 (UO-31 renal) [µM]
1 | COc1ccc2c(c1)c(CC(=O)O)c(C)n2C(=O)c1ccc(Cl)cc1 | > 100 | > 100 | > 100 | > 100 | > 100 | > 100 | > 100 | > 100 | > 100 | > 100 |  |  |  |  |  |  |  |  |  | 
2 | COc1ccc2nc3cc([N+](=O)[O-])ccc3c(Nc3ccc(S(=O)(=O)NC(C)=O)cc3)c2c1 | > 100 | > 100 | > 100 | > 100 | > 100 | > 100 | > 100 | > 100 | > 100 | > 100 |  |  |  |  |  |  |  |  |  | 
3 | O=C(Nc1nc2ccccc2s1)c1cc([N+](=O)[O-])ccc1Cl | > 100 | > 38.9 | 65.9 | > 47.8 | > 22.6 | > 82.5 | > 70.3 | 28.5 | > 100 | > 100 |  |  |  |  |  |  |  |  |  | 
4 | CC1=NN(c2nc(N)nc(/C(C#N)=C/c3cccn3-c3cc(Cl)cc(Cl)c3)n2)C(C)(C)C1 | > 100 | > 100 | > 100 | > 100 | > 100 | > 100 | > 100 | > 100 | > 100 | > 100 |  |  |  |  |  |  |  |  |  | 
5 | N#Cc1c(-c2ccc(Cl)cc2)c2c(n(C3OC(CO)C(O)C(O)C3O)c1=S)CCC2 (stereo not given) | 98.4 | 60.7 | > 100 | 47.2 | 40.9 | 74.3 | > 100 | 42.3 | > 100 | > 100 |  |  |  |  |  |  |  |  |  | 
6 | O=C1c2cc3c(cc2CC12Cc1ccc4c(c1C2=O)CCCC4)CCCC3 (stereo not given) | > 100 | 64.2 | > 100 | > 100 | > 100 | > 100 | > 100 | > 100 | > 100 | > 100 |  |  |  |  |  |  |  |  |  | 
7 | CC1(O)CC(=O)c2c(cc3ccc(-c4c5c(c(O)c6c(O)cccc46)C(=O)CC(C)(O)C5)c(O)c3c2O)C1 (stereo not given) | 3.86 | 0.815 | 3.96 | 7.11 | 1.7 | 0.646 | 11.2 | 2.34 | 0.897 | 0.726 |  |  |  |  |  |  |  |  |  | 
8 | O=c1c2cc(I)ccc2nc(-c2cccs2)n1-c1ccc(O)cc1 | 27.4 | 26.9 | 27.1 | 29.3 | 32.8 | 21.8 | 22.5 | 14.5 | 29.9 | 25.4 |  |  |  |  |  |  |  |  |  | 
9 | Cc1cc(N2CCCC2)nc(N(CCNc2ccnc3cc(Cl)ccc23)Cc2ccco2)n1 | > 100 | 13.2 | > 100 | > 100 | > 100 | 42.3 | > 100 | 10.4 | > 100 | 39.8 | 1.91 | 1.88 | 1.68 | 2.93 | 2.91 | 3.4 | 2.84 | 3.27 | 18 | 2.58
10 | CCCCCCCCCCCCCCCCCCNc1ccn(C2OC(COP(=O)(O)OCC3OC(n4cc(F)c(NCCCCCCCCCCCCCCCCCC)nc4=O)CC3O)C(O)C2O)c(=O)n1 (stereo not given) | > 100 | > 100 | > 100 | > 100 | > 100 | > 100 | > 100 | > 100 | > 100 | > 100 |  |  |  |  |  |  |  |  |  | 
11 | COc1ccc(C(SC2C(O)C(CO)OC2n2ccc(N)nc2=O)(c2ccccc2)c2ccc(OC)cc2)cc1 (stereo not given) | 29.4 | 37.3 | 36.2 | 27.9 | 50.6 | 48.5 | 41.1 | 36.3 | 33 | 42.8 |  |  |  |  |  |  |  |  |  | 
12 | CC(C)(Oc1ccc(Cl)cc1)C(=O)N(C(=O)N1CCC(c2ccccc2)CC1)c1ccccc1 | > 100 | > 100 | > 100 | > 100 | > 100 | > 100 | > 100 | > 100 | > 100 | > 100 |  |  |  |  |  |  |  |  |  | 
13 | COc1ccccc1NC(=O)CC(=O)N1N=C(C)C(N=Nc2ccc(C(=O)O)cc2)C1=O (stereo not given) | > 100 | > 100 | > 100 | > 100 | > 100 | > 100 | > 100 | > 100 | > 100 | > 100 |  |  |  |  |  |  |  |  |  | 
14 | COc1cc(C2c3cc4c(cc3OC(NNC(N)=O)C2C)OCO4)cc(OC)c1O (stereo not given) | > 56.5 | > 90.2 | > 56.8 | > 42.6 | > 55 | 10.1 | > 100 | 4.71 | > 74.4 | > 100 |  |  |  |  |  |  |  |  |  | 
15 | COc1ccc(NC(C)=O)cc1N1C(=O)/C(=C\c2cc(OC)c(OC)c(OC)c2)SC1c1ccccc1 (stereo not given) | > 100 | > 100 | > 100 | > 100 | > 100 | > 100 | > 100 | > 100 | > 100 | > 100 |  |  |  |  |  |  |  |  |  | 
16 | C=C(C)C(O)C(O)c1c(OC)ccc2ccc(=O)oc12 (stereo not given) | > 100 | > 100 | > 100 | > 100 | > 100 | > 100 | > 100 | > 100 | > 100 | > 100 |  |  |  |  |  |  |  |  |  | 
17 | COc1ccc(-n2c(=O)n(C)c(=O)n2-c2ccc(OC)cc2)cc1 | > 100 | > 100 | > 100 | > 100 | > 100 | > 100 | > 100 | > 100 | > 100 | > 100 |  |  |  |  |  |  |  |  |  | 
18 | C(CCCCc1nnc(N2CCCCC2)o1)CCCc1nnc(N2CCCCC2)o1 | > 100 | > 100 | > 100 | > 100 | > 100 | > 100 | > 100 | > 100 | > 100 | > 100 |  |  |  |  |  |  |  |  |  | 
19 | S=C1SCN(Cc2ccco2)CN1c1ccc(Br)cc1 | 42.2 | 60.7 | 39.5 | 29 | 31.3 | 21.1 | 37 | 36.2 | 32 | 44.9 |  |  |  |  |  |  |  |  |  | 
20 | CCOC(=O)c1cc2c(C(=O)c3ccc([N+](=O)[O-])cc3)c(C(C)=O)ccc2[nH]1 | > 100 | 44.6 | > 100 | > 100 | > 100 | > 100 | > 100 | > 100 | > 100 | > 100 |  |  |  |  |  |  |  |  |  | 
21 | COC(=O)c1c(O)ccc2c1c1c(n2Cc2cccc(C)c2)C(=O)c2ccccc2C1=O | 20.2 | 19.8 | 14 | 32.3 | 20.2 | 22.8 | 23.5 | 28.2 | 27.4 | 19.8 |  |  |  |  |  |  |  |  |  | 
22 | CCNC(=O)c1cc(/C=C/c2ccc([N+](=O)[O-])o2)nc2ccccc12 | > 100 | > 100 | > 100 | 14.5 | > 100 | > 100 | > 100 | > 100 | 16.6 | > 100 |  |  |  |  |  |  |  |  |  | 
23 | Cc1ccc2c(c1C)C(=O)/C(=C/c1ccccc1C(=O)O)C2 | > 100 | > 100 | > 100 | > 100 | > 100 | > 100 | > 100 | > 100 | > 100 | > 100 |  |  |  |  |  |  |  |  |  | 
24 | O=C(OCCN=c1c2ccccc2ccc2ccccc12)c1ccc([N+](=O)[O-])cc1 | > 100 | > 100 | > 100 | > 100 | > 100 | > 100 | > 100 | > 100 | > 100 | > 100 |  |  |  |  |  |  |  |  |  | 
25 | CC(C)C(OC(=O)c1ccc(NCc2cc(O)ccc2O)cc1)C(C)C | 14 | 1.36 | 16.6 | 6.93 | 16.4 | 4.37 | 3.96 | 2.47 | 6.68 | 2.42 |  |  |  |  |  |  |  |  |  | 
26 | CN1CCN(CCCBr)CC1 | > 100 | > 100 | > 100 | > 100 | > 100 | > 100 | > 100 | > 100 | > 100 | > 100 |  |  |  |  |  |  |  |  |  | 
27 | CCOC(=O)c1nc2ccc(C(F)(F)F)cc2nc1Oc1cc(OC)cc(OC)c1 | > 100 | > 100 | > 100 | > 100 | > 100 | > 100 | > 100 | > 100 | > 100 | > 100 |  |  |  |  |  |  |  |  |  | 
